Source: paper PMC4549706, “Rational Design of Highly Potent and Slow-Binding Cytochrome bc1 Inhibitor as Fungicide by Computational Substitution Optimization” (Scientific Reports, 2015)

Legend:
[1] = target: T1, porcine succinate-cytochrome c reductase (SCR, the mixture of complex II and bc1) (Sus scrofa, UniProt P24964); experiment: SCR activity, succinate-cytochrome c system (Assay 1); type: biochemical; conditions: for ligand efficiency (LE): from Ki against bc1 complex; for binding behaviour to bc1 complex (slow or fast binding): progress curves of SCR-catalysed reaction
T1 construct: T h e S C R f r o m p o r c i n e h e a r t; from tissue; host or cells: porcine heart
T1 sequence (P24964 whole entry, one chain of several): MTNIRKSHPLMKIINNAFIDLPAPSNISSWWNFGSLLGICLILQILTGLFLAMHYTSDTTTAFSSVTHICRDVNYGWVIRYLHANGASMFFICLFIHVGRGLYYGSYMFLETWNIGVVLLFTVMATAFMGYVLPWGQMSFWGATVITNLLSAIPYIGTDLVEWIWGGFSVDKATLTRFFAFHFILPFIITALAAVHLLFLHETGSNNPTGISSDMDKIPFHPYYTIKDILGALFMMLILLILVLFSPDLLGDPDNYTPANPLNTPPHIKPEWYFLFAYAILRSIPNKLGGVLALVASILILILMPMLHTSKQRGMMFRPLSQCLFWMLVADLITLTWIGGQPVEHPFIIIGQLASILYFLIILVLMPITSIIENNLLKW
Description: (§1) Figure 4 Slow-binding inhibition mechanism. (A,B) Effect of various concentrations of cytochrome c and compound 18 on the inhibition of SCR activity. Each reaction mixture contains 100 mM, pH 7.4), EDTA (0.3 mM), succinate (20 mM), SCR (0.1 nM), and indicated amounts of cytochrome c and compound 18. The assays were performed in the presence of (A) 18 (35 nM) and a specified amount of cytochrome c (1, 4 μM; 2, 8 μM; 3, 20 μM; and 4, 48 μM) or (B) cytochrome c (60 μM) and various concentrations of compound 18 (1, 0 nM; 2, 15 nM; 3, 20 nM; 4, 30 nM; 5, 40 nM; and 6, 50 nM). Experimental data are shown as coloured dots and theoretical values are represented as black solid lines. Insets: plots of Kobs against concentration of (A) cytochrome c and (B) compound 18. […] Each reaction mixture contains 100 mM, pH 6.5), EDTA (2 mM), lauryl maltoside (750 μM), oxidised cytochrome c (100 μM), SCR (0.05 nM), and indicated amounts of DBH2 and compound 18. Two representative sets of inhibitory assays were performed in the presence of (C) DBH2 (20 μM) and a specified amount of compound 18 (1, 20 nM; 2, 40 nM; 3, 60 nM; 4, 80 nM), or (D) DBH2 (120 μM) and a specified amount of compound 18 (1, 40 nM; 2, 80 nM; 3, 120 nM; 4, 180 nM). Insets: plots of Kobs against concentration of compound 18. (E) Plot of the apparent rate constant A against concentration of DBH2. Inset: Plot of 1/A against concentration of DBH2. (F) Plot of the apparent rate constant B against concentration of DBH2.
(§2) The porcine succinate-cytochrome c reductase (SCR, the mixture of complex II and bc1) was prepared essentially according to the previously reported method. The enzymatic activities of SCR, complex II, and bc1 complex were analyzed in respective reaction mixtures as reported previously. Kinetic analyses for the inhibition mechanism were performed as previously described. […]
(§3) inhibitory kinetics study of bc1 inhibitors 8. […]
(§4) synthesized compounds against bc1 complex were examined by SCR. As previously described 9, the combined activity of SCR can be determined by using succinate and cytochrome c as substrates (Assay 1). We also measured the activity of complex II by using succinate and 2,6-dichloroindophenol (DCIP) as substrates (Assay 2), or the activity of bc1 complex by using decylubiquinol (DBH2) and cytochrome c as substrates (Assay 3). […]
redA 10, was used to represent the enzyme concentration. The three redox reactions used in this study were summarized as follows.
Assay 1: succinate + cytochrome c3+ S C R fumarate + cytochrome c2+
Assay 2: succinate + DCIP complex II fumarate + DCIPH 2
Assay 3: DBH 2 + cytochrome c3+ bc1 complex DB + cytochrome c2+
All assays were performed at 23 °C. The enzymatic activity of SCR (Assay 1) was carried out in 1.8 mL of reaction mixture containing 100 mM PBS (pH 7.4), 0.3 mM EDTA, and indicated concentrations of succinate and oxidized cytochrome c (Sigma-Aldrich). The activity of succinate-ubiquinone reductase (complex II, Assay 2) was determined in essentially the same reaction mixture, except for the replacement of cytochrome c with DCIP (Alfa Aesar). […] DBH 2 was prepared through reduction of decylubiquinone by dithionite (Sigma-Aldrich) as previously described 11,12. The nonionic detergent LM was used to decrease the interfering non-enzymatic activity though it slightly […]

bc1 complex = target: T2, bc1 complex (Sus scrofa, UniProt P24964); experiment: bc1 complex activity, DBH2-cytochrome c system (Assay 3); type: biochemical, porcine
T2 construct: T h e S C R f r o m p o r c i n e h e a r t; from tissue; host or cells: porcine heart
T2 sequence (P24964 whole entry, one chain of several): as above
Description: Figure 3 Inhibitory kinetics of bc1 complex. (A) Chemical structures of AZ (azoxystrobin) and its analogues, compound 1 and compound 18. These compounds have a common pharmacophore structure: methoxyacrylate (MOA). […] Each reaction mixture contains phosphate buffered saline (PBS; 100 mM, pH 6.5), ethylenediaminetetraacetic acid (EDTA; 2 mM), lauryl maltoside (750 μM), oxidised cytochrome c (100 μM), SCR (0.05 nM), DBH2 (20–120 μM) and a specified amount of AZ (1, 0 nM; 2, 500 nM; 3, 1000 nM; 4, 2000 nM; 5, 3000 nM; and 6, 5000 nM). (C) Compound 1 is non-competitive with respect to cytochrome c. The reaction mixture contains 100 mM, pH 7.4), EDTA (0.3 mM), succinate (20 mM), SCR (0.1 nM), cytochrome c (1.13–15.6 μM), and a series of concentrations of compound 1 (1, 0 nM; 2, 10 nM; 3, 20 nM; 4, 40 nM; and 5, 60 nM). (D) Compound 1 is competitive with respect to DBH2. Each reaction mixture contains 100 mM, pH 6.5), EDTA (2 mM), lauryl maltoside (750 μM), oxidised cytochrome c (100 μM), SCR (0.05 nM), DBH2 (20–120 μM) and a specified amount of compound 1 (1, 0 nM; 2, 50 nM; 3, 100 nM; 4, 200 nM; 5, 300 nM; and 6, 500 nM).
as §1, §2, §3, §4
redA 10, was used to represent the enzyme concentration. The three redox reactions used in this study were summarized as follows. […]

SMILES: COC=C(C(=O)OC)c1ccccc1CSc1nc2cc(OC)ccc2s1 [Compound 18]
- Ki [1]: 4.1 ± 0.5 nM
- inhibition type with respect to cytochrome c ([1]; Assay 1, varied cytochrome c): non-competitive
- ∆∆Gexp ([1]; Table S1, experimental binding free energy change vs compound 1): -1.20 kcal/mol
- ΔΔGexp ([1]; experimental binding free energy change relative to compound 1): -1.20 kcal/mol
- ligand efficiency (LE) [1]: 0.45 kcal mol^−1 per non-H atom
- binding behaviour to bc1 complex (slow or fast binding) [1]: slow-binding
- kon ([1]; read-out: association rate constant k+0): 660000 ± 10000 M⁻¹ s⁻¹
- koff ([1]; read-out: dissociation rate constant k−0): 0.00271 ± 0.00031 s⁻¹
- Ki (bc1 complex): 13.4 ± 0.6 nM
- inhibition type with respect to DBH2 (bc1 complex; Assay 3, varied DBH2): competitive inhibitor
- microscopic inhibition rate constant k+0 (bc1 complex; Assay 3, varied DBH2): 380000 ± 10000 M⁻¹ s⁻¹
- microscopic inhibition rate constant k−0 (bc1 complex; Assay 3, varied DBH2): 0.00509 ± 0.00009 s⁻¹

SMILES: CO/C=C(/C(=O)OC)c1ccccc1Oc1cc(Oc2ccccc2C#N)ncn1 [AZ, Azoxystrobin, reference compound]
- ligand efficiency (LE) [1]: 0.3 kcal mol^−1 per non-H atom
- binding behaviour to bc1 complex (slow or fast binding) [1]: fast-binding
- Ki (bc1 complex): 395 ± 19.6 nM
- inhibition type with respect to DBH2 (bc1 complex; Assay 3, varied DBH2): competitive inhibitor
